Source: ChEMBL document CHEMBL1201862, “PubChem BioAssay data set” (2004)
Values belong to the compound of their own block, whether it stands above or below them. Active and inactive are the calls of the source.

Assays:
[1] = Late stage assay provider results from the probe development effort to identify selective inhibitors of heat shock protein 90 (HSP90): Absorbance-based cell proliferation assay in SKBR3 cells.; format: functional; conditions: SK-BR-3
[2] = Late stage assay provider results from the probe development effort to identify selective inhibitors of heat shock protein 90 (HSP90): Absorbance-based cell proliferation assay in MCF7 cells.; format: functional
cells = conditions: A549
[3] = HIV Env cell-cell fusion inhibitors, dose response, HIV entry, plate reader, dry powder (AID 687023); format: functional, cell-based
[4] = CEM21 cell cytotoxicity, dose response, cytotoxicity control, plate reader, dry powder (AID 687026); format: functional, cell-based
[5] = cytotoxicity toward NIH3T3 fibroblasts, dose response, counter-screen, cell-based, ATP luminescence, mouse fibroblasts (AID 2010); format: functional;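 also: cells exposed to compound for about 90 hours before reading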
[6] = molecular target: DNA repair and recombination protein RAD54-like (Homo sapiens, UniProt Q92698); assay: inhibitors of human RAD54 branch migration, confirmation, biochemical, fluorescence, cherry-picked samples, dose series (AID 651657); format: functional
Sequence of DNA repair and recombination protein RAD54-like (Q92698 whole entry): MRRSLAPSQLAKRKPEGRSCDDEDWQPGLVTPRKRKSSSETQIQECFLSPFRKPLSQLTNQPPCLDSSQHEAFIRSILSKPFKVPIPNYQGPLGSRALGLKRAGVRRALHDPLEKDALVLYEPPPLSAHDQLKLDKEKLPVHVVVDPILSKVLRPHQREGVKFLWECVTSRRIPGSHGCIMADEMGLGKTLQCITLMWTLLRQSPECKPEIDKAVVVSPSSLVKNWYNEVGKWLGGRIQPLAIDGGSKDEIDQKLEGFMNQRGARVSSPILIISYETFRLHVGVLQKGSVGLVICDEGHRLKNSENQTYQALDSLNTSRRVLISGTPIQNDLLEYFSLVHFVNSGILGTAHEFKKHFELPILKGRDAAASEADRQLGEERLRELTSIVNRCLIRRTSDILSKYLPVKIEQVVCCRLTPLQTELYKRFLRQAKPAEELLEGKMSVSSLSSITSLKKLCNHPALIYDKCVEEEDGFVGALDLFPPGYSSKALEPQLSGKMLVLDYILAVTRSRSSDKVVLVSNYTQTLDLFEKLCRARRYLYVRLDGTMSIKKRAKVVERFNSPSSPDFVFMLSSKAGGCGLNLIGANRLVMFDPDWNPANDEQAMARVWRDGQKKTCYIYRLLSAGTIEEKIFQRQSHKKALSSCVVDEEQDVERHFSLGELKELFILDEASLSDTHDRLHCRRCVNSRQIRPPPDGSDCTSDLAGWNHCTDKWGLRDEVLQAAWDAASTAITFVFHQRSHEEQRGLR

[7] = inhibitors of intracellular T. cruzi replication, confirmation, NIH3T3 host cells, beta-gal luminescence (AID 2044); format: functional, cell-based;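 also: intracellular parasites grown in NIH/3T3 mouse fibroblasts as host cells; luminescent beta-galactosidase reporter signal from transgenic T. cruzi replicating inside host cells; inhibitors lower the luminescence signal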
[8] = molecular target: E3 ubiquitin-protein ligase UHRF1 (Homo sapiens, UniProt Q96T88); assay: Counterscreen for inhibitors of 5-meCpG-binding domain protein 2 (MBD2): TRFRET-based biochemical high throughput dose response assay to identify inhibitors of binding of ubiquitin-like with PHD and ring finger domains 1 (UHRF1) to methylated oligonucleotide.
Sequence of E3 ubiquitin-protein ligase UHRF1 (Q96T88 whole entry, the tested form may be a part): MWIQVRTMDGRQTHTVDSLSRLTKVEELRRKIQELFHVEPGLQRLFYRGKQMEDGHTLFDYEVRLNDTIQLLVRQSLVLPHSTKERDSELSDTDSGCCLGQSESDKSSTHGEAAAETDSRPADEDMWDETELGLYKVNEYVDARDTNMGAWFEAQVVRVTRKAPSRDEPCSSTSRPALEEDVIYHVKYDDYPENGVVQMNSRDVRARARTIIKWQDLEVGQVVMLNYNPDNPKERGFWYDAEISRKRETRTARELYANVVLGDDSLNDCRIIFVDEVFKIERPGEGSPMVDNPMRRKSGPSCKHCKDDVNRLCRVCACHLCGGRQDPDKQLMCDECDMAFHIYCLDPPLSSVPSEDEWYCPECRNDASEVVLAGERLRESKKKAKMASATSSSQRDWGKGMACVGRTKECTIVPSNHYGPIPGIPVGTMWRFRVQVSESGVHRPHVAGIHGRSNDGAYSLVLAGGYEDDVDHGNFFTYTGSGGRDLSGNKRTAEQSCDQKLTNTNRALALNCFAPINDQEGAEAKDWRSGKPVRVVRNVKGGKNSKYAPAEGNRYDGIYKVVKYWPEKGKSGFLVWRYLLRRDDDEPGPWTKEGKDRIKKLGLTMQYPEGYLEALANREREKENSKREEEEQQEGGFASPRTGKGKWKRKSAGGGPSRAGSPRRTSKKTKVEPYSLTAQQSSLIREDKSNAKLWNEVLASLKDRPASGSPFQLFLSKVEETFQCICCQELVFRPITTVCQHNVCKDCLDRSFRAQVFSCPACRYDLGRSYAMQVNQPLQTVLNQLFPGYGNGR

[9] = A375 melanoma cell viability loss, dose response, counter-screen for MITF inhibitor project, CellTiter-Glo luminescence, dry powder, set 4 (AID 624364); format: functional, cell-based; conditions: A-375;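 also: A375 melanoma cells are MITF independent so this is a counter screen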
[10] = A375 melanoma cell cytotoxicity, dose response, counter-screen for MITF inhibitor project, CellTiter-Glo luminescence, dry powder, set 2 (AID 624489); format: functional, cell-based; conditions: A-375;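 also: actives are compounds lowering A375 viability meaning general cytotoxicity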
[11] = control 3'UTR Renilla luciferase suppression, dose response, counter-screen for Shn3 inhibitor project, cell-based, Clone20-Shn3RL, cherry-picked (AID 624133); format: functional
Cytochrome P450 3A4 = Cytochrome P450 3A4 (Homo sapiens, UniProt P08684);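 also: CYP3A4 tested as one member of a cytochrome P450 panel screen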
Sequence of Cytochrome P450 3A4 (P08684 whole entry): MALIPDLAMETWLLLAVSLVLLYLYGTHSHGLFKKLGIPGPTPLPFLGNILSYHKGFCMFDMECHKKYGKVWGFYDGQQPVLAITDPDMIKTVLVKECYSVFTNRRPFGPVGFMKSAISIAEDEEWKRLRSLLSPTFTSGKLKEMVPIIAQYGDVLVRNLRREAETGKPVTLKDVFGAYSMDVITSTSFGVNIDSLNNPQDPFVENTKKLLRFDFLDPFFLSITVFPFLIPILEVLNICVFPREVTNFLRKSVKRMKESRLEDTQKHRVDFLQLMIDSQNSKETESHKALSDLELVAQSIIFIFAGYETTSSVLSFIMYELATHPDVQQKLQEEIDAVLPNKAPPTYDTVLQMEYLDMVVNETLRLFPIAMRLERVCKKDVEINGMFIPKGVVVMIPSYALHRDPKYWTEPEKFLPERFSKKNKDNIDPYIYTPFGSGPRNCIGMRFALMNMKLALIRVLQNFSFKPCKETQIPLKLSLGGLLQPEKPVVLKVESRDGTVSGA

[12] = inhibitors of control Renilla luciferase reporter, dose response, counter-screen for Shn3 3'UTR targeting project, Clone20-Shn3RL cells, dual-Glo, cherry-pick, set 2 (AID 720724); format: functional, cell-based; conditions: Dual-Go Shn3RL
INS1 = assay: beta cell apoptosis inhibitors, cytokine rescue, dose response, luminescence, retest (AID 449756); format: functional, cell-based; conditions: Rattus norvegicus;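 also: cell death triggered by IL-1 beta plus TNF-alpha plus IFN-gamma mixture; protective hits raise ATP signal compared with cytokine alone wells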
[13] = HepG2 cell cytotoxicity, dose response, cytotoxicity control for Shn3 inhibitor project, CellTiter-Glo, cherry-picked (AID 624134); format: functional, cell-based
[14] = reduction of Shn3 3'UTR firefly luciferase signal, dose response, Schnurri-3 inhibitor project, cell-based, Clone20 osteoblasts, cherry-pick, set 2 (AID 720490); format: functional;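 also: actives lower the luminescence signal as inhibitors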
[15] = Shn3 3'UTR reporter inhibitors, dose response, cell-based, Clone20 osteoblasts, firefly luciferase, cherry-picked (AID 624132); format: functional;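 also: firefly luciferase luminescence from reporter carrying the Shn3 3'UTR in osteoblasts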
[16] = Artemis endonuclease inhibitor potency, dose response, biochemical, fluorescence intensity (AID 720701); format: functional;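 also: Artemis endonuclease enzyme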
[17] = cytotoxicity in A549 cells, dose response, cytotoxicity control, cell-based, CellTiter-Glo luminescence, cherry-pick (AID 743484); format: functional
[18] = molecular target: T1, Calpain-2 catalytic subunit (Sus scrofa, UniProt P43367); assay: pig calpain II inhibitor potency, dose response, biochemical, fluorogenic peptide substrate (AID 1420); format: functional
T1 sequence (P43367 whole entry): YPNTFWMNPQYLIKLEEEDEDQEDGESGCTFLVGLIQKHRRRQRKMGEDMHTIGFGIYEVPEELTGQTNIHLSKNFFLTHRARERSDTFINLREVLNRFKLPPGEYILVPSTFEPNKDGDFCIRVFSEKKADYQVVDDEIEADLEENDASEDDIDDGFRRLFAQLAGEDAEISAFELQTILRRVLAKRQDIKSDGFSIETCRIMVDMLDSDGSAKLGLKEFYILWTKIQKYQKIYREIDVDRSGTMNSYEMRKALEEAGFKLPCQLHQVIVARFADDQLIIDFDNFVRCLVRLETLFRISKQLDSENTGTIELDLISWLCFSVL

[19] = cytotoxicity in HepG2 cells, dose response, cytotoxicity control, cell-based, CellTiter-Glo luminescence, cherry-pick, set 4 (AID 743480); format: functional
[20] = HEK293T cell cytotoxicity, dose response, cytotoxicity control, CellTiter-Glo luminescence, cherry-picked samples, set 4 (AID 743441); format: functional, cell-based; conditions: HEK293
[21] = cytotoxicity in COV434 cells, dose response, cytotoxicity control for PAX8 inhibitor project, cell-based, plate reader, dry powder, SA7 (AID 743145); format: functional
[22] = PAX2 cell-based inhibition, dose response, selectivity assay for PAX8 inhibitor project, plate reader, dry powder samples (AID 743048); format: functional;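 also: HEK293 cells carrying a WT1 promoter luciferase reporter driven by expressed Pax2; potency is for inhibition of Pax2 driven reporter signal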
[23] = PAX5 activity inhibitors, dose response, selectivity assay for PAX8 inhibitor project, cell-based, plate reader, dry powder samples (AID 743047); format: functional;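 also: HEK293 cells carrying a Pax5 driven CD19 promoter luciferase reporter; potency of inhibitors that lower reporter luminescence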
[24] = cytotoxicity dependent on PAX8, dose response, cell-based, plate reader, dry powder (AID 743049); format: functional

Compound: COc1ccc(N/C=C2\C(=O)OC(=O)c3ccccc32)cc1
IC50 [1]: > 100 µM (inactive)
IC50 [2]: > 100 µM (inactive)

Compound: N#C/C(=C\c1ccco1)C(=O)Nc1cccc2ncccc12
AC50 (cells): > 52 µM (inactive)

Compound: Cc1noc(C)c1S(=O)(=O)Nc1cccc2c1O[C@H](CN(C)Cc1ccc(C(F)(F)F)cc1)[C@H](C)CN([C@@H](C)CO)C2=O
AC50 [3]: 10.6 µM (active)
AC50 [4]: > 70 µM (inactive)

Compound: Cc1ccc2nc(Cl)c3cc(C(=O)NCCCN4CCCC4)sc3c2c1
EC50 [5]: 9.72 µM (active)
AC50 [6]: 11.4 µM (active)
EC50 [7]: 1.65 µM (active)
IC50 [8]: > 43.8 µM (inactive)

Compound: CN1CCN(C2=C(NS(=O)(=O)c3ccc(Br)cc3)C(=O)c3ccccc3C2=O)CC1
AC50 [9]: > 70 µM (inactive)
AC50 [10]: > 70 µM (inactive)

Compound: Cc1ccc(-c2csc(N3CCC(NS(=O)(=O)c4ccc5c(c4)OCCO5)CC3)n2)cc1
AC50 [11]: 15 µM (active)
AC50 (Cytochrome P450 3A4): inconclusive
AC50 [12]: 21.6 µM (active)
AC50 (INS1): 5.51 µM (active)
AC50 [13]: > 70 µM (inactive)
AC50 [14]: 3.03 µM (active)
AC50 [15]: 2.15 µM (active)

IC50 [16]: 18.7 µM (active)
Compound: O=C(Nc1nc2n(n1)C(c1ccccc1)CC(c1ccc(Cl)cc1)N2)c1ccco1 (configuration not stated)

Compound: O=C(COC(=O)c1cccc(O)c1)Nc1ccc(Cl)cc1C(=O)c1ccccc1
AC50 [17]: 32.3 µM (active)
IC50 [18]: 17.9 µM (not active)
AC50 [19]: > 52 µM (inactive)
AC50 [20]: > 52 µM (inactive)

Compound: N#C[C@H]1[C@@H](c2ccc(C3=CCCC3)cc2)[C@@H](CO)N1C(=O)NC1CCCCC1
AC50 [21]: > 70 µM (inactive)
AC50 [22]: 52.1 µM (active)
AC50 [23]: > 70 µM (inactive)
AC50 [24]: 61.5 µM (active)
